Laboratory results reported in patent US9532553B2, “Process for treating with a chemical compound a body of water used in aquaculture” (SOLVAY SA, priority 2009, dated 2017).

What was measured:
[1] = tested on: Atlantic salmons; conditions: Example 3: 1500 ppm hydrogen peroxide in 500 m^3 sea water, added in about 4.5 min via eductor nozzle agitation system, treatment continued 22.5 min
Protocol: The treatment was continued for 22.5 minutes then the treated water was flushed away and replaced by fresh seawater.
In Example 3, the body of water comprised additionally Atlantic salmons as living organisms, said salmons being infested with external parasites, i.e. salmon lice (Lepeophtheirus salmonis). The purpose of the test was to remove these parasites from the fish.

[2] = tested on: salmon lice (Lepeophtheirus salmonis); conditions: Example 3: 1500 ppm hydrogen peroxide in 500 m^3 sea water, added in about 4.5 min, treatment continued 22.5 min, then flushed; infested Atlantic salmons

SMILES: OO [hydrogen peroxide]
- injury to the fish [1]: without injuring the fish
- removal of salmon lice from the treated fish [2]: effective in removing the salmon lice
